Source: ChEMBL document CHEMBL5344478, “Cytochrome bd oxidase: an emerging anti-tubercular drug target” (RSC Med Chem, 2024)

Experiments:
[1] = Inhibition of Mycobacterium bovis BCG cytochrome bd oxidase with ATP synthase overexpression inverted membrane vesicles; type: cell membranes, Mycobacterium tuberculosis variant bovis, Membrane vesicle
[2] = Inhibition of wild type Mycobacterium bovis BCG cytochrome bd oxidase assessed as inhibition of oxygen consumption rate measured after 5 days by Methylene blue dye based assay; parameters: species or system Mycobacterium tuberculosis variant bovis

Structure (SMILES)	IC50 [1]	IC50 [2]
c1ccc(CCNc2ncnc3ccccc23)cc1	11 µM	–
FC(F)(F)c1ccc(Oc2ccc(Nc3ncnc4ccccc34)cc2)cc1	0.5 µM	0.8 µM
NC(=O)NC(=O)c1nc(-c2cc3ccccc3o2)c(N)nc1N	21.2 µM	–
CCc1nc2ccc(Cl)cn2c1C(=O)NCc1ccc(N2CCC(c3ccc(OC(F)(F)F)cc3)CC2)cc1 [TELACEBEC]	6.2 µM	–
